# Source: ChEMBL document CHEMBL3046596, “Antinociceptive activities of some triazole and pyrazoline moieties-bearing compounds” (Med Chem Res, 2012)
# Assays:
# Mus musculus [1] = assay: Antinociceptive activity in Mus musculus Swiss albino (mouse) assessed as increase in reaction (paw licking and jumping) latency to thermal stimulus at 100 mg/kg, ip administered 30 min before experimental session by hot plate test; type: functional; settings: route intraperitoneal
# Mus musculus [2] = assay: Antinociceptive activity against formalin-induced pain in Mus musculus Swiss albino (mouse) assessed as inhibition of licking during first phase (0 to 5 min) at 100 mg/kg, ip administered 30 min before experimental session; type: functional; settings: route intraperitoneal
# Mus musculus [3] = assay: Toxicity in Mus musculus Swiss albino (mouse) assessed as mortality at 100 mg/kg, ip; type: organism-based; design: dose 100 mg/kg, route intraperitoneal; settings: in vivo
# Mus musculus [4] = assay: Antinociceptive activity in Mus musculus Swiss albino (mouse) assessed as prolongation of reaction latency to mechanical stimuli at 100 mg/kg, ip administered 30 min before experimental session by tail-clip test; type: functional; settings: route intraperitoneal
# Mus musculus [5] = assay: Toxicity in Mus musculus Swiss albino (mouse) assessed as horizontal locomotor activity at 100 mg/kg, ip; type: organism-based; design: dose 100 mg/kg, route intraperitoneal; settings: in vivo
# Mus musculus [6] = assay: Toxicity in Mus musculus Swiss albino (mouse) assessed as vertical locomotor activity at 100 mg/kg, ip; type: organism-based; design: dose 100 mg/kg, route intraperitoneal; settings: in vivo
# Mus musculus [7] = assay: Antinociceptive activity against formalin-induced pain in Mus musculus Swiss albino (mouse) assessed as inhibition of licking during second phase (15 to 30 min) at 100 mg/kg, ip administered 30 min before experimental session; type: functional; settings: route intraperitoneal
# Mus musculus [8] = assay: Antinociceptive activity in Mus musculus Swiss albino (mouse) assessed as increase in reaction (paw licking and jumping) latency to thermal stimulus at 10 mg/kg, ip administered 30 min before experimental session by hot plate test; type: functional; settings: route intraperitoneal
# Mus musculus [9] = assay: Antinociceptive activity in Mus musculus Swiss albino (mouse) assessed as prolongation of reaction latency to mechanical stimuli at 10 mg/kg, ip administered 30 min before experimental session by tail-clip test; type: functional; settings: route intraperitoneal
# Mus musculus [10] = organism: Mus musculus; assay: animal or person; settings: Swiss albino, ip, read-out: INH
# Description: Antinociceptive activity against formalin-induced pain in Mus musculus Swiss albino (mouse) assessed as inhibition of licking during second phase (15 to 30 min) at 10 mg/kg, ip administered 30 min before experimental session
# Mus musculus [11] = organism: Mus musculus; assay: animal or person; settings: Swiss albino, ip, read-out: INH; remark: listed apart in the source
# Description: Antinociceptive activity against formalin-induced pain in Mus musculus Swiss albino (mouse) assessed as inhibition of licking during first phase (0 to 5 min) at 10 mg/kg, ip administered 30 min before experimental session
smiles,measurement,setting,value
Nn1c(CCc2ccc(O)cc2)nnc1SCC(=O)N1N=C(c2cccs2)CC1c1ccccc1 (stereo unspecified),Activity,Mus musculus [1],79.4%
same,inhibition in vivo at 100 mg/kg,Mus musculus [2],66.6%
same,Activity,Mus musculus [3],Non-toxic
same,MPE,Mus musculus [4],80.2%
same,Activity,Mus musculus [5],Non-toxic
same,Activity,Mus musculus [6],Non-toxic
same,inhibition in vivo at 100 mg/kg,Mus musculus [7],79.2%
Nn1c(CCc2ccc(O)cc2)nnc1SCC(=O)N1N=C(c2cccs2)CC1c1ccc(F)cc1 (stereo unspecified),Activity,Mus musculus [1],89%
same,inhibition in vivo at 100 mg/kg,Mus musculus [2],73.7%
same,Activity,Mus musculus [3],Non-toxic
same,MPE,Mus musculus [4],85%
same,Activity,Mus musculus [5],Non-toxic
same,Activity,Mus musculus [6],Non-toxic
same,inhibition in vivo at 100 mg/kg,Mus musculus [7],78.3%
Nn1c(CCc2ccc(O)cc2)nnc1SCC(=O)N1N=C(c2cccs2)CC1c1ccc2c(c1)OCO2 (stereo unspecified),Activity,Mus musculus [1],45.1%
same,inhibition in vivo at 100 mg/kg,Mus musculus [2],32%
same,Activity,Mus musculus [3],Non-toxic
same,MPE,Mus musculus [4],36.2%
same,Activity,Mus musculus [5],Non-toxic
same,Activity,Mus musculus [6],Non-toxic
same,inhibition in vivo at 100 mg/kg,Mus musculus [7],37.3%
CN(C)c1ccc(C2CC(c3cccs3)=NN2C(=O)CSc2nnc(CCc3ccc(O)cc3)n2N)cc1 (stereo unspecified),Activity,Mus musculus [1],38.5%
same,inhibition in vivo at 100 mg/kg,Mus musculus [2],31.3%
same,Activity,Mus musculus [3],Non-toxic
same,MPE,Mus musculus [4],36.5%
same,Activity,Mus musculus [5],Non-toxic
same,Activity,Mus musculus [6],Non-toxic
same,inhibition in vivo at 100 mg/kg,Mus musculus [7],38.9%
CN1CC[C@]23c4c5ccc(O)c4O[C@H]2[C@@H](O)C=C[C@H]3[C@H]1C5 [MORPHINE],Activity,Mus musculus [8],92.5%
same,MPE,Mus musculus [9],88.1%
same,inhibition in vivo at 10 mg/kg,Mus musculus [10],100%
same,inhibition in vivo at 10 mg/kg,Mus musculus [11],100%
Nn1c(CCc2ccc(O)cc2)nnc1SCC(=O)N1N=C(c2cccs2)CC1c1ccc(Cl)cc1 (stereo unspecified),Activity,Mus musculus [1],81.6%
same,inhibition in vivo at 100 mg/kg,Mus musculus [2],68.7%
same,Activity,Mus musculus [3],Non-toxic
same,MPE,Mus musculus [4],75.3%
same,Activity,Mus musculus [5],Non-toxic
same,Activity,Mus musculus [6],Non-toxic
same,inhibition in vivo at 100 mg/kg,Mus musculus [7],72.1%
Cc1ccc(C2CC(c3cccs3)=NN2C(=O)CSc2nnc(CCc3ccc(O)cc3)n2N)cc1 (stereo unspecified),Activity,Mus musculus [1],50.3%
same,inhibition in vivo at 100 mg/kg,Mus musculus [2],35.4%
same,Activity,Mus musculus [3],Non-toxic
same,MPE,Mus musculus [4],53.5%
same,Activity,Mus musculus [5],Non-toxic
same,Activity,Mus musculus [6],Non-toxic
same,inhibition in vivo at 100 mg/kg,Mus musculus [7],42.5%
